19 molecules from ChEMBL document CHEMBL4665769, “Artemyrianolides A-S, Cytotoxic Sesquiterpenoids from Artemisia myriantha” (J Nat Prod, 2020) can be followed below.

What is called IC50 is the concentration that inhibits the measured activity by half.

SMILES strings stand for the structures. Bounds are passed on as bounds.

Common to all, as to type: functional, cell-based
One experiment relates to HepG2. The experiment can be described thus: Cytotoxicity against human HepG2 cells assessed as reduction in cell viability after 48 hrs by MTT assay. The note with it: HepG2, 48 h.
A further experiment relates to SMMC-7721. Briefly: Cytotoxicity against human SMMC-7721 cells assessed as reduction in cell viability after 48 hrs by MTT assay. The note with it: SMMC-7721, 48 h. In general terms: Tetrazolium dyes change colour on reduction, which living cells bring about.
Another experiment deals with Huh-7. Briefly: Cytotoxicity against human Huh-7 cells assessed as reduction in cell viability after 48 hrs by MTT assay. Conditions: Huh-7, 48 h.

As to `C=C1C(=O)O[C@H]2C[C@@]3(C)[C@H](O)CCC(=C)[C@]3(O)C[C@H]12`, the IC50 in the experiment with HepG2, in the experiment with SMMC-7721 and in the experiment on Huh-7 was > 10 µM each time.

Turning to `C=C1C(=O)O[C@@H]2CC(=C)[C@@H]3CC[C@@](C)(O)[C@@H]3C[C@H]12`, the concentration for half-maximal inhibition (IC50) with HepG2, in the experiment with SMMC-7721 and in the experiment on Huh-7 was > 10 µM throughout.

As for `C=C1C(=O)O[C@@H]2C[C@H](C)[C@]3(/C=C/C(C)=O)O[C@@H]3C[C@H]12`, the results for the IC50 in the experiment with HepG2, with SMMC-7721 and in the experiment on Huh-7 were > 10 µM, > 10 µM and 8.2 µM, respectively.

Turning to `CNC(=O)c1cc(Oc2ccc(NC(=O)Nc3ccc(Cl)c(C(F)(F)F)c3)cc2)ccn1` [SORAFENIB], the figures for the IC50 in the experiment on HepG2, in the experiment with SMMC-7721 and with Huh-7 were 8 µM, > 10 µM and 10.1 µM, respectively.

Turning to `C=C1C[C@H]2OC(=O)C(=C)[C@H]2C[C@@H](O)C(=C)CCC1=O`, the IC50 in the experiment on HepG2, with SMMC-7721 and in the experiment with Huh-7 was > 10 µM each time.

On to `C=C1C(=O)O[C@@H]2C[C@]3(C)O[C@H](C[C@H]12)C(=C)CC[C@@H]3O`, for which the IC50 with HepG2, in the experiment on SMMC-7721 and in the experiment on Huh-7 was > 10 µM each time.

Regarding `C=C1C(=O)O[C@@H]2C[C@@]3(C)C=CC(=O)C(C)=C3C[C@H]12`, the half-inhibitory concentration (IC50) in the experiment on HepG2, in the experiment with SMMC-7721 and with Huh-7 was > 10 µM throughout.

Take `C=C1C(=O)O[C@H]2C/C(C)=C/[C@H](OC(C)=O)CC(=C)[C@@H](O)C[C@H]12`: the IC50 in the experiment on HepG2, in the experiment with SMMC-7721 and in the experiment with Huh-7 was > 10 µM each time.

For the molecule `C=C1C[C@@H]2OC(=O)C(=C)[C@H]2C[C@@H]2[C@@H]1[C@H](OC(C)=O)C[C@@]2(C)O`, the IC50 with HepG2, in the experiment with SMMC-7721 and in the experiment with Huh-7 was > 10 µM in each case.

As to `C=C1C(=O)O[C@H]2C/C(C)=C/[C@H](OC(C)=O)C[C@@]3(C)O[C@H]3C[C@H]12`, the IC50 in the experiment on HepG2, with SMMC-7721 and in the experiment on Huh-7 was > 10 µM throughout.

Regarding `C=C1C(=O)O[C@@H]2C[C@@]3(C)CCCC(=C)[C@]3(O)C[C@H]12` [TELEKIN], the IC50 with HepG2, in the experiment on SMMC-7721 and with Huh-7 was > 10 µM each time.

Regarding `C=C1C[C@@H](OC(C)=O)/C=C(\C)C[C@@H]2OC(=O)C(=C)[C@H]2C[C@H]1O`, the IC50 in the experiment with HepG2, in the experiment on SMMC-7721 and with Huh-7 was > 10 µM each time.

Regarding `C=C1C(=O)O[C@H]2C/C(C)=C/[C@H](OC(C)=O)C[C@@]3(CO3)C(=O)C[C@H]12`, the IC50 in the experiment on HepG2 is 8.6 µM; in the experiment on SMMC-7721, > 10 µM; with Huh-7, 8.8 µM.

Turning to `C=C1C[C@@H](OC(C)=O)/C=C(\C)C[C@@H]2OC(=O)C(=C)[C@H]2CC1=O`, the IC50 with HepG2 amounted to 4.9 µM; in the experiment on SMMC-7721, 3.1 µM; in the experiment with Huh-7 it was 4.3 µM.

Regarding `C=C1C(=O)O[C@H]2C[C@@]3(C)[C@H](O)CCC(=C)[C@]3(OO)C[C@H]12`, the IC50 with HepG2, in the experiment on SMMC-7721 and with Huh-7 was > 10 µM in each case.

`C=C1C(=O)O[C@@H]2C[C@]3(C)[C@@H](C[C@H]12)[C@H](C)C(=O)[C@@H]1O[C@@H]13`: the half-inhibitory concentration (IC50) in the experiment with HepG2, in the experiment with SMMC-7721 and in the experiment with Huh-7 was > 10 µM in each case.

As to `C=C1C[C@@H](OC(C)=O)/C=C(\C)C[C@@H]2OC(=O)C(=C)[C@H]2C[C@@H]1OC(C)=O`, the IC50 in the experiment with HepG2, with SMMC-7721 and in the experiment on Huh-7 was > 10 µM each time.

Regarding `C=C1C(=O)O[C@@H]2C[C@]3(C)[C@@H](CCC(C)=O)[C@@H]3C[C@H]12`, the IC50 with HepG2 is > 7.4 µM; in the experiment with SMMC-7721, > 10 µM; with Huh-7, 7.8 µM.

In the case of `C=C1C[C@@H](OC(C)=O)/C=C(\C)C[C@@H]2OC(=O)C(=C)[C@H]2C[C@@H]1OO`, the figures for the IC50 with HepG2, in the experiment with SMMC-7721 and in the experiment on Huh-7 were > 10 µM, > 10 µM and 10 µM, respectively.
